We go through one molecule from patent publication US20150284362A1, “CARBAZOLE-CONTAINING AMIDES, CARBAMATES, AND UREAS AS CRYPTOCHROME MODULATORS” (ReSet Therapeutics, Inc., priority 2014, published 2015).

The subject of data set [1] is db/db mice. As to the kind of experiment: 7 day dosing, glucose metabolism, insulin and compound levels in db/db mouse model of type II diabetes. The class given is in vivo. The conditions noted are these: 50 mg/kg PO QD 7 days. From the text: (§1) Significance was accepted when p<0.05.
The subject of data set [2] is db/db mice. Description: Increasing dosages of Compound 72 over 7 days in db/db mouse model of type II diabetes. The class given is in vivo. Particulars: 10, 50, 100 mg/kg PO QD 7 days.
Description: as §1

For a further data set, the system named is Dbp mRNA in whole blood. Description: Dbp mRNA in whole blood of db/db mice after three daily doses. The conditions noted are these: 100 mg/kg PO once daily for three days at ZT0, blood at ZT7.5. The class given is in vivo, mouse. The method, then:
For whole blood RNA studies, male db/db mice (9 weeks of age, The Jackson Laboratory, Bar Harbor, Me.) were used for the experiment with n=8 mice for each experimental group. […] On the final day at ZT7.5 (2:30 pm), animals were euthanized using CO2 asphyxiation, and the blood collected from the heart via cardiac puncture. The blood was placed in RNALater solution to 1.5 ml total volume. Total RNA was prepared using an Ambion Mouse RiboPure Blood RNA Isolation Kit AM1951 as follows. Samples were centrifuged for 3 minutes, discarding the supernatant. Two ml of lysis solution was added and vortexed, transferred to a 15 ml tube followed by the addition of microliters 3M Sodium Acetate. […]
RediPlate 96 RiboGreen RNA Quantification Kit (Invitrogen) RediPlate standard curve was prepared by transferring 20 μl reconstituted RNA standard to a RediPlate well reconstituted in 180 μl RediPlate TE buffer. […] After transferring 5 μl to RediPlate well reconstituted in 195 μl TE buffer and incubating 10 min. at RT, Fluorescence Intensity of wells with standards and samples were read in a Tecan M200 with Excitation set at 480 nm and Emission set at 520 nm with the gain set to ˜70%. […] A standard curve was generated in GraphPad Prism and sample readings (unknowns) are interpolated via linear regression analysis, and the RNA sample concentrations were calculated. […]

Data set [3] concerns core clock gene mRNAs in liver. As to the kind of experiment: Single dose at peak (ZT0) or nadir (ZT10) of Cry1, liver core clock gene mRNAs. Type of data set: in vivo, mouse. The conditions noted are these: db/db mice; single dose 50 mg/kg at ZT0 or ZT10; liver 7.5 hours later. Here is the method: For compounds that interact directly with the core clock mechanism, the time of dosing may be critical for maximizing their effects. […] The former (ZT0) is coincident with the peak of Cry1 and Bmal1 protein in mouse liver and the latter (ZT10) corresponds to the approximate nadir of Cry1 and Bmal1. Liver tissue was taken 7.5 hours later for each, and the samples were examined for core clock gene mRNAs by RT-qPCR.

Data set [4] relates to C57/Bl6J DIO mice. As to the kind of experiment: 7 day dosing in diet-induced obesity (DIO) mouse model of type II diabetes. The class given is in vivo. Particulars: 100 mg/kg PO QD 7 days.
Description: (§2) Male C57/Bl6J DIO mice were obtained from The Jackson Laboratory (Sacramento, Calif.). […] Animals were accustomed to these conditions for at least 2 weeks before experimentation and used at approximately 24 weeks of age.
as §1

The nature of data set [5]: Pharmacokinetic analysis in SD rats (plasma). Particulars: male, po, rat, 50 mg/kg P.O., Table 4, read-out: Total Plasma AUC, AUC (0-last). The class given is in vivo. The method, then:
Male SD rats (weighing 250-300 g, Charles River Laboratories) were used for the experiment with n=4 rats for each experimental group. […] Blood was collected at the following time points after administration: 15, 30, 60, 90 minutes, 3, 6, 12 and 24 hours. A pre-dose sample was also collected. Animals were cannulated by technical staff at Charles River, prior to delivery at Reset. Whole blood (0.3 ml) was collected from a cannula in the right common jugular vein at each time-point. The whole blood was transferred to an EDTA tube, and then centrifuged at 5400 rpm for 5 minutes at 4° C. The resultant plasma was frozen using dry ice and then stored at −80° C. until ready for assay. 0.9% Sodium Chloride (0.3 ml) was administered for fluid replenishment after each blood draw. 0.1 ml of Sodium Heparin (500 IU/ml) was used as a lock solution after the 12 hr time-point. Samples were assayed as described above.

The test system of data set [6] is C57/Bl6J DIO mice. Description: Increasing dosages of Compound 72 over 7 days in diet-induced obesity (DIO) mouse model. Type of data set: in vivo. Particulars: 10, 30, 100 mg/kg PO QD 7 days.
Description: as §2, §1
Male C57/Bl6J DIO mice were obtained from The Jackson Laboratory (Sacramento, Calif.). […] Animals were accustomed to these conditions for at least 2 weeks before experimentation and used at approximately 26 weeks of age.

Consider `O=C1NCCN1CC(O)Cn1c2ccc(F)cc2c2cc(F)ccc21` (stereo not shown) [Compound 72, 1-(3-(3,6-difluoro-9H-carbazol-9-yl)-2-hydroxypropyl)imidazolidin-2-one], for which the figures for the “OGTT glucose vs vehicle control group” value in the data set on db/db mice [1] and in the data set with C57/Bl6J DIO mice [4] were “lower than the vehicle control group” and “much lower than the vehicle control group”, respectively. Further, the figures for the “OGTT glucose excursion following a glucose load” value with db/db mice [2] and in the data set on C57/Bl6J DIO mice [6] were “dose dependent effect on glucose excursion” and “reduction in glucose excursion”, respectively. In addition, the “Dbp gene expression in whole blood” value in the data set with Dbp mRNA in whole blood is on record as “statistically significant suppression”. For the same molecule, the “impact on core clock gene mRNAs in liver, dosing at peak vs nadir” value in data set [3] is “greater relative impact on the clock mRNAs at the peak compared to the nadir”. In addition, in data set [5], the AUC(0-t) is 57900 ng·h/mL.
